Results as given in patent publication US11046691B1 (IDEAYA BIOSCIENCES, INC., priority 2018, dated 2021).

Biological target: hMAT2A (Homo sapiens (Human), UniProt P31153)
Test: Phosphate Sensor Fluorescence Assay (MAT2A enzyme inhibition)
Assay type: biochemical
Details: L-methionine 500 uM, ATP 500 uM, class symbols
Summary of the method: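 Recombinant MAT2A preincubated 15 min at room temperature with compound, then reacted 1 h at room temperature with 500 uM L-methionine and 500 uM ATP in Tris pH 7.5 buffer containing PNP/7-MEG.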

hMAT2A, sequence (P31153 whole entry): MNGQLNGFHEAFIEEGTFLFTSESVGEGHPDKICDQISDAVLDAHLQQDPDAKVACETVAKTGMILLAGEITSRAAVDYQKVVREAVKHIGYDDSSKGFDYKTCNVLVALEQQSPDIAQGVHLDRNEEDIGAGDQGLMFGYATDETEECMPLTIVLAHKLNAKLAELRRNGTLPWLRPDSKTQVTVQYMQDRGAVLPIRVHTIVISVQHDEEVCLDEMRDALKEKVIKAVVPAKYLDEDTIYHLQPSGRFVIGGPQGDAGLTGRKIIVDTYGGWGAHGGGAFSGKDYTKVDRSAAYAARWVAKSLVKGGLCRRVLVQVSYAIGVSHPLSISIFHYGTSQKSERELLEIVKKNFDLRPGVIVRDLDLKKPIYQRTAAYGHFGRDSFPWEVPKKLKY

SMILES | IC50 [nM]
Cn1ccc(CNc2nc(=O)n(-c3ccccc3Cl)c3nc(C(F)(F)F)ccc23)n1 [Example 257, 1-(2-chlorophenyl)-4-{[(1-methyl-pyrazol-3-yl)methyl]amino}-7-(trifluoro-methyl)-pyrido[2,3-d]pyrimidin-2(1H)-one] | < 200
CC(C)Nc1nc(=O)n(-c2ccccc2Cl)c2nc(C(F)(F)F)ccc12 [Example 258, 1-(2-chlorophenyl)-4-[(methylethyl)-amino]-7-(trifluoromethyl)pyrido[2,3-d]-pyrimidin-2(1H)-one] | < 200
CC(C)(C)Nc1nc(=O)n(-c2ccccc2Cl)c2nc(C(F)(F)F)ccc12 [Example 259, 4-[(tert-butyl)amino]-1-(2-chloro-phenyl)-7-(trifluoromethyl)pyrido-[2,3-d]pyrimidin-2(1H)-one] | < 200
CNc1nc(=O)n(-c2ncccc2C)c2nc(C(F)(F)F)ccc12 [Example 260, 1-(3-methyl(2-pyridyl))-4-(methyl-amino)-7-(trifluoromethyl)pyrido[2,3-d]-pyrimidin-2(1H)-one] | < 200
CNc1nc(=O)n(-c2ncccc2Cl)c2nc(C(F)(F)F)ccc12 [Example 261, 1-(3-chloro(2-pyridyl))-4-(methyl-amino)-7-(trifluoromethyl)pyrido[2,3-d]-pyrimidin-2(1H)-one] | < 200
CNc1nc(=O)n(Cc2c[nH]cn2)c2cc(Cl)ccc12 [Example 262, 7-chloro-1-(imidazol-4-ylmethyl)-4-(methylamino)hydroquinazolin-2-one] | < 200
Cc1ncccc1-n1c(=O)nc(N)c2ccc(C(F)(F)F)nc21 [Example 263] | < 200
CS(=O)(=O)CCNc1nc(=O)n(-c2ccccc2Cl)c2nc(C(F)(F)F)ccc12 [Example 264, 1-(2-chlorophenyl)-4-{[2-(methyl-sulfonyl)ethyl]amino}-7-(trifluoro-methyl)pyrido [2,3-d]pyrimidin-2 (1H)-one] | < 200
O=c1nc(NCC2(CO)CC2)c2ccc(C(F)(F)F)nc2n1-c1ccccc1Cl [Example 265] | < 200
CN(C)CCCNc1nc(=O)n(-c2ccccc2Cl)c2nc(C(F)(F)F)ccc12 [Example 266, 4-{[3-(dimethylamino)propyl]amino}-1-(2-ch1orophenyl)-7-(trifluoromethyl)-pyrido[2,3-d]pyrimidin-2(1H)-one] | 1000 to 10000
CN(C)CCNc1nc(=O)n(-c2ccccc2Cl)c2nc(C(F)(F)F)ccc12 [Example 267, 4-{[2-(dimethylamino)ethyl]amino}-1-(2-chlorophenyl)-7-(trifluoromethyl)-pyrido[2,3-d]pyrimidin-2(1H)-one] | 1000 to 10000
C[C@]1(O)C[C@@H](Nc2nc(=O)n(-c3ccccc3Cl)c3nc(C(F)(F)F)ccc23)C1 [Example 268, 1-(2-chlorophenyl)-4-(((1s,3s)-3-hydroxy-3-methylcyclobutyl)amino)-7-(trifluoromethyl)pyrido[2,3-d]pyrimidin-2(1H)-one] | < 200
C[C@]1(Nc2nc(=O)n(-c3ccccc3Cl)c3nc(C(F)(F)F)ccc23)C[C@@H](O)C1 [Example 269, 1-(2-chlorophenyl)-4-(((1s,3s)-3-hydroxy-1-methylcyclobutyl)amino)-7-(trifluoromethyl)pyrido[2,3-d]pyrimidin-2(1H)-one] | < 200
CO[C@H]1C[C@@H](Nc2nc(=O)n(-c3ccccc3Cl)c3nc(C(F)(F)F)ccc23)C1 [Example 270, 1-(2-chlorophenyl)-4-(((1s,3s)-3-methoxycyclobutyl)amino)-7-(trifluoro-methyl)pyrido[2,3-d]pyrimidin-2(1H)-one] | < 200
O=c1nc(NCC2CCO2)c2ccc(C(F)(F)F)nc2n1-c1ccccc1Cl (stereo not shown) [Example 271, 1-(2-chlorophenyl)-4-[(oxetan-2-ylmethyl)amino]-7-(trifluoromethyl)-pyrido[2,3-d]pyrimidin-2(1H)-one] | < 200
[2H]C([2H])([2H])Nc1nc(=O)n(-c2ccccc2C)c2nc(C(F)(F)F)ccc12 [Example 272, 4-((methyl-d3)amino)-1-(2-methyl-phenyl)-7-(trifluoromethyl)pyrido[2,3-d]pyrimidin-2(1H)-one] | < 200
O=c1nc(NC2COC2)c2ccc(C(F)(F)F)nc2n1-c1ccccc1Cl [Example 274, 1-(2-chlorophenyl)-4-(oxetan-3-yl-amino)-7-(trifluoromethyl)pyrido[2,3-d]pyrimidin-2(1H)-one] | < 200
O=c1nc(N[C@H]2C[C@](O)(C(F)(F)F)C2)c2ccc(C(F)(F)F)nc2n1-c1ccccc1Cl [Example 275, 4-{[(cis)-3-hydroxy-3-(trifluoromethyl)-cyclobutyl]amino}-1-(2-chlorophenyl)-7-(trifluoromethyl)pyrido[2,3-d]-pyrimidin-2(1H)-one] | 500 to 1000

SMILES | IC50 [nM]
N#CC1(Nc2nc(=O)n(-c3ccccc3Cl)c3nc(C(F)(F)F)ccc23)CCC1 [Example 277, 1-((1-(2-chlorophenyl)-2-oxo-7-(trifluoromethyl)-1,2-dihydropyrido[2,3-d]pyrimidin-4-yl)amino)cyclobutane-1-carbonitrile] | < 200
N#CCCNc1nc(=O)n(-c2ccccc2Cl)c2nc(C(F)(F)F)ccc12 [Example 278, 3-((1-(2-chlorophenyl)-2-oxo-7-(trifluoro-methyl)-1,2-dihydropyrido-[2,3-d]pyrimidin-4-yl)amino)-propanenitrile] | < 200
O=c1nc(N2CC[C@@H](O)C2)c2ccc(Cl)cc2n1-c1ccc2[nH]ncc2c1 [Example 279, (R)-7-chloro-4-(3-hydroxypyrrolidin-1-yl)-1-(1H-indazol-5-yl)quinazolin-2(1H)-one] | < 200
CN(C)c1nc(=O)n(-c2ccc3[nH]ncc3c2)c2cc(Cl)ccc12 [Example 280, 7-chloro-4-(dimethylamino)-1-(1H-indazol-5-yl)quinazolin-2(1H)-one] | < 200
O=c1nc(N2CC[C@@H](O)C2)c2ccc(Cl)cc2n1-c1ccc2[nH]cnc2c1 [Example 281, (R)-7-chloro-4-(3-hydroxypyrrolidin-1-yl)-1-(1H-benzimidazol-5-yl)quinazolin-2(1H)-one] | < 200
Cc1ncccc1-n1c(=O)nc(NCC(F)F)c2ccc(C(F)(F)F)cc21 [Example 282, 4-((2,2-difluoroethyl)amino)-1-(2-methylpyridin-3-yl)-7-(trifluoromethyl)-quinazolin-2(1H)-one] | < 200
Cc1ncccc1-n1c(=O)nc(N2CC[C@@H](O)C2)c2ccc(C(F)(F)F)cc21 [Example 283] | < 200
CNc1nc(=O)n(-c2cccnc2C)c2cc(C(F)(F)F)ccc12 [Example 284] | < 200
Cc1ncccc1-n1c(=O)nc(N)c2ccc(C(F)(F)F)cc21 [Example 285] | < 200
O=c1nc(N2CCOCC2)c2ccc(C(F)(F)F)nc2n1-c1ccccc1Cl [Example 286, 1-(2-chlorophenyl)-4-morpholin-4-yl-7-(trifluoromethyl)pyrido[2,3-d]pyrimidin-2(1H)-one] | < 200
NC(=O)CNc1nc(=O)n(-c2ccccc2Cl)c2nc(C(F)(F)F)ccc12 [Example 287, 2-((1-(2-chlorophenyl)-2-oxo-7-(trifluoromethyl)-1,2-dihydropyrido[2,3-d]pyrimidin-4-yl)amino)acetamide] | < 200
C[C@H](O)CNc1nc(=O)n(-c2ccccc2Cl)c2nc(C(F)(F)F)ccc12 [Example 293, 4-[((2S)-2-hydroxypropyl)amino]-1-(2-chlorophenyl)-7-(trifluoromethyl)-pyrido[2,3-d]pyrimidin-2(1H)-one] | < 200
C[C@@H](O)CNc1nc(=O)n(-c2ccccc2Cl)c2nc(C(F)(F)F)ccc12 [Example 294, 4-[((2R)-2-hydroxypropyl)amino]-1-(2-chlorophenyl)-7-(trifluoromethyl)-pyrido[2,3-d]pyrimidin-2(1H)-one] | < 200
O=c1nc(NCC2(O)CC2)c2ccc(C(F)(F)F)nc2n1-c1ccccc1Cl [Example 295, 1-(2-chlorophenyl)-4-{[(hydroxycyclo-propyl)methyl]amino}-7-(trifluoro-methyl)-pyrido[2,3-d]pyrimidin-2(1H)-one] | < 200
O=c1nc(NCCO)c2ccc(C(F)(F)F)nc2n1-c1ccccc1Cl [Example 296, 1-(2-chlorophenyl)-4-[(2-hydroxy-Iethyl)amino]-7-(trifluoromethyl) pyrido[2,3-d]pyrimidin-2(1H)-one] | < 200
O=c1nc(NC23CC(O)(C2)C3)c2ccc(C(F)(F)F)nc2n1-c1ccccc1Cl [Example 297, 1-(2-chlorophenyl)-4-[(3-hydroxy-bicyclo[1.1.1]pentyl)amino]-7-(trifluoro-methyl)-pyrido[2,3-d]pyrimidin-2(1H)-one] | < 200
O=c1nc(N[C@H]2C[C@@](O)(C(F)(F)F)C2)c2ccc(C(F)(F)F)nc2n1-c1ccccc1Cl [Example 299] | 200 to 500
C[C@]1(O)C[C@H](Nc2nc(=O)n(-c3ccccc3Cl)c3nc(C(F)(F)F)ccc23)C1 [Example 300, 4-[((trans)-3-hydroxy-3-methylcyclo-butyl)amino]-1-(2-chlorophenyl)-7-(trifluoromethyl)pyrido[2,3-d]pyrimidin-2(1H)-one] | < 200

Same assay, conditions: L-methionine 500 uM, ATP 500 uM, numeric bound

SMILES | IC50 [nM]
O=c1[nH]c(=O)n(-c2ccccc2Cl)c2nc(C(F)(F)F)ccc12 [Example 288, 1-(2-chlorophenyl)-4-hydroxy-7-(trifluoromethyl)hydropyridino[2,3-d]-pyrimidin-2-one] | > 10000
O=c1nc(O)c2c(C3=CCNC3)cc(Cl)cc2n1-c1ccccc1 [Example 289, 7-chloro-5-(2,5-dihydro-1H-pyrrol-3-yl)-4-hydroxy-1-phenylquinazolin-2(1H)-one] | > 10000
CC(C)(C)OC(=O)N1CC=C(c2cc(Cl)cc3c2c(O)nc(=O)n3-c2ccccc2)C1 [Example 290, tert-butyl 3-(7-chloro-4-hydroxy-2-oxo-1-phenyl-1,2-dihydroquinazolin-5-yl)-2,5-dihydro-1H-pyrrole-1-carboxylate] | > 10000
O=c1nc(O)c2c(-c3ccncc3)cc(Cl)cc2n1-c1ccccc1 [Example 291, 7-chloro-4-hydroxy-1-phenyl-5-(pyridin-4-yl)quinazolin-2(1H)-one] | > 10000
